Data from the NIST ThermoML archive (doi:10.1016/j.jct.2011.12.035).

Experiment: xn = mol fraction of the nth substance listed
Conditions: Gas, Buoyancy - hydrostatic balance with magnetic suspension - one sinker

N#N [nitrogen] + O=C=O
Conditions	mass density [kg/m3]
324.98 K, 10004 kPa, x2 = 0.501	153.908
324.98 K, 11001 kPa, x2 = 0.501	171.162
324.98 K, 12005 kPa, x2 = 0.501	188.662
324.98 K, 13008 kPa, x2 = 0.501	206.25
324.98 K, 14011 kPa, x2 = 0.501	223.826
324.98 K, 14991 kPa, x2 = 0.501	240.922
324.98 K, 16018 kPa, x2 = 0.501	258.66
324.98 K, 17012 kPa, x2 = 0.501	275.602
324.98 K, 18018 kPa, x2 = 0.501	292.404
324.98 K, 19023 kPa, x2 = 0.501	308.813
324.98 K, 19436 kPa, x2 = 0.501	315.426
349.95 K, 1995.5 kPa, x2 = 0.2	21.523
349.95 K, 3995.9 kPa, x2 = 0.2	43.283
349.95 K, 5996.5 kPa, x2 = 0.2	65.117
349.95 K, 7996.2 kPa, x2 = 0.2	86.91
349.95 K, 9978.8 kPa, x2 = 0.2	108.381
349.95 K, 11996 kPa, x2 = 0.2	129.976
349.95 K, 13995 kPa, x2 = 0.2	151.019
349.95 K, 15999 kPa, x2 = 0.2	171.67
349.95 K, 17993 kPa, x2 = 0.2	191.695
349.95 K, 19820 kPa, x2 = 0.2	209.531
349.96 K, 983.48 kPa, x2 = 0.501	12.303
349.96 K, 1988.3 kPa, x2 = 0.501	25.152
349.96 K, 2996.4 kPa, x2 = 0.501	38.326
349.96 K, 3997 kPa, x2 = 0.501	51.667
349.96 K, 4995.9 kPa, x2 = 0.501	65.24
349.96 K, 5996.2 kPa, x2 = 0.501	79.074
349.96 K, 6995.9 kPa, x2 = 0.501	93.129
349.96 K, 7995.5 kPa, x2 = 0.501	107.379
349.96 K, 8996.2 kPa, x2 = 0.501	121.83
349.96 K, 9996.3 kPa, x2 = 0.501	136.421
349.96 K, 10998 kPa, x2 = 0.501	151.155
349.96 K, 11997 kPa, x2 = 0.501	165.911
349.96 K, 12998 kPa, x2 = 0.501	180.741
349.96 K, 14000 kPa, x2 = 0.501	195.573
349.96 K, 14998 kPa, x2 = 0.501	210.29
349.96 K, 15995 kPa, x2 = 0.501	224.908
349.96 K, 16996 kPa, x2 = 0.501	239.453
349.96 K, 17996 kPa, x2 = 0.501	253.79
349.96 K, 18997 kPa, x2 = 0.501	267.945
349.96 K, 19977 kPa, x2 = 0.501	281.556
374.94 K, 981.92 kPa, x2 = 0.2	9.845
374.94 K, 1992.4 kPa, x2 = 0.2	19.995
374.94 K, 3995.7 kPa, x2 = 0.2	40.155
374.94 K, 5995.1 kPa, x2 = 0.2	60.236
374.94 K, 7995.3 kPa, x2 = 0.2	80.217
374.94 K, 9993 kPa, x2 = 0.2	99.987
374.94 K, 11990 kPa, x2 = 0.2	119.489
374.94 K, 13988 kPa, x2 = 0.2	138.676
374.94 K, 16023 kPa, x2 = 0.2	157.817
374.94 K, 17847 kPa, x2 = 0.2	174.574
374.94 K, 19903 kPa, x2 = 0.2	192.989
374.95 K, 987.06 kPa, x2 = 0.501	11.492
374.95 K, 1987.8 kPa, x2 = 0.501	23.329
374.95 K, 2995.7 kPa, x2 = 0.501	35.439
374.95 K, 3994.8 kPa, x2 = 0.501	47.603
374.95 K, 4993.3 kPa, x2 = 0.501	59.918
374.95 K, 5994.6 kPa, x2 = 0.501	72.415
374.95 K, 6995 kPa, x2 = 0.501	85.031
374.95 K, 8053.6 kPa, x2 = 0.501	98.499
374.95 K, 8965.3 kPa, x2 = 0.501	110.186
374.95 K, 9995.9 kPa, x2 = 0.501	123.471
374.95 K, 10995 kPa, x2 = 0.501	136.416
374.95 K, 11992 kPa, x2 = 0.501	149.335
374.95 K, 12992 kPa, x2 = 0.501	162.294
374.95 K, 13995 kPa, x2 = 0.501	175.285
374.95 K, 14994 kPa, x2 = 0.501	188.172
374.95 K, 15990 kPa, x2 = 0.501	200.942
374.95 K, 16990 kPa, x2 = 0.501	213.677
374.95 K, 17988 kPa, x2 = 0.501	226.253
374.95 K, 19119 kPa, x2 = 0.501	240.354
374.95 K, 19941 kPa, x2 = 0.501	250.44
400.01 K, 996.68 kPa, x2 = 0.2	9.356
400.01 K, 1978.2 kPa, x2 = 0.2	18.57
400.01 K, 3994 kPa, x2 = 0.2	37.452
400.01 K, 5994.7 kPa, x2 = 0.2	56.097
400.01 K, 7993.8 kPa, x2 = 0.2	74.576
400.01 K, 9990.6 kPa, x2 = 0.2	92.826
400.01 K, 11990 kPa, x2 = 0.2	110.835
400.01 K, 13987 kPa, x2 = 0.2	128.512
400.01 K, 15981 kPa, x2 = 0.2	145.821
400.01 K, 17979 kPa, x2 = 0.2	162.772
400.01 K, 19979 kPa, x2 = 0.2	179.326
400.02 K, 975.89 kPa, x2 = 0.501	10.626
400.02 K, 1987.6 kPa, x2 = 0.501	21.767
400.02 K, 2995.6 kPa, x2 = 0.501	32.992
400.02 K, 3980.9 kPa, x2 = 0.501	44.058
400.02 K, 4993.2 kPa, x2 = 0.501	55.527
400.02 K, 5994.2 kPa, x2 = 0.501	66.95
400.02 K, 6991.4 kPa, x2 = 0.501	78.405
400.02 K, 7992.4 kPa, x2 = 0.501	89.956
400.02 K, 8994.6 kPa, x2 = 0.501	101.571
400.02 K, 9979.8 kPa, x2 = 0.501	113.018
400.02 K, 10987 kPa, x2 = 0.501	124.751
400.02 K, 11986 kPa, x2 = 0.501	136.359
400.02 K, 12984 kPa, x2 = 0.501	147.944
400.02 K, 13986 kPa, x2 = 0.501	159.545
400.02 K, 14984 kPa, x2 = 0.501	171.05
400.02 K, 15985 kPa, x2 = 0.501	182.526
400.02 K, 16984 kPa, x2 = 0.501	193.894
400.02 K, 17965 kPa, x2 = 0.501	204.97
400.02 K, 18983 kPa, x2 = 0.501	216.347
400.02 K, 19960 kPa, x2 = 0.501	227.147
